We go through 13 compounds from patent publication US9150585B2, “Analogs of camptothecin” (FL Therapeutics, LLC, priority 2012, dated 2015).

The target in data set [1] is Human serum albumin (HSA) (Homo sapiens, UniProt P02768). The data set can be described thus: HSA-binding assay (equilibrium dialysis). As to conditions: isolated protein. Here is the method: Equilibrium dialysis was performed in a 24-well BD Gentest Serum Binding System (BD Biosciences, Woburn, Mass.). Human serum albumin (HSA) at 0.6 mM was prepared by dissolving in phosphate buffered saline (PBS: 4.01 mL 1 M K2HPO4+0.99 mL 1 M KH2PO4+1.37 mL 5 M NaCl+43.63 mL water). After washing and soaking the 24-well BD Gentest Serum Binding System with water, 30% ethanol, and PBS, 750 μL of HSA and 250 μL of PBS were dispensed into each donor and receiver well, respectively. 3.75 μL of 1 mM test compound or wafarin (as control) was spiked into HSA in each donor well. The duplicate incubations were performed at 37° C. for 20 hrs.
After incubation, HSA and buffer samples collected from donor and receiver wells, together with calibration standard samples, were prepared in 96-well plates as shown in Table 5.
The plates were then capped, vortexed, and centrifuged at 3500 rpm for 10 minutes. The supernatant was injected into LC-MS/MS. Sample analysis was performed on an LC/MS/MS system composed of Shimadzu Prominence pumps, SIL-20ACHT autosampler, and Applied Biosystems/MDS Sciex API 3200.
(In equilibrium dialysis free small molecules cross a membrane that holds back macromolecules.)

A short description of data set [2]: Persistence in plasma (incubation with human plasma, LC-MS/MS). The class given is in vitro ADME. To be noted: for Peak Area Ratio (Analyte/IS) Human Plasma 0 min Replicate 1 / Peak Area Ratio (Analyte/IS) Human Plasma 0 min Replicate 2 / Peak Area Ratio (Analyte/IS) Human Plasma 60 min Replicate 1 / Peak Area Ratio (Analyte/IS) Human Plasma 60 min Replicate 2 / % Remaining after 1-hr Incubation at 37° C. in Human Plasma, Average / % Remaining after 1-hr Incubation at 37° C. in Human Plasma, Replicate 1 / % Remaining after 1-hr Incubation at 37° C. in Human Plasma, Replicate 2: 10 μM. The method, then: Test compounds and control (procaine) were incubated at a concentration of 10 μM with human plasma. The duplicate incubations, conducted in 96-well plates in a shaking water bath maintained at 37° C., were performed for 0 and 60 minutes and quenched by addition of acetonitrile.
After quenching by acetonitrile, the plates were capped, vortexed, and centrifuged at 3000 rpm for 10 minutes. The supernatant was injected into LC-MS/MS.
[formula] […] FL-001 and FL-003 are stable in human plasma, with a percent remaining of 127 and 89, respectively. Using the same protocol, the percent remaining of Camptothecin after 1-hr incubation in human plasma is 11%.

For data set [3] the following is noted: cited from earlier work.
The conditions of data set [4]: in presence of HSA; cited from earlier work.
Where [5] appears, read: human plasma, 37° C., replicate 1.
The mark [6] stands for this setting: human plasma, 37° C., replicate 2.

Chain of Human serum albumin (HSA) (P02768 25-609): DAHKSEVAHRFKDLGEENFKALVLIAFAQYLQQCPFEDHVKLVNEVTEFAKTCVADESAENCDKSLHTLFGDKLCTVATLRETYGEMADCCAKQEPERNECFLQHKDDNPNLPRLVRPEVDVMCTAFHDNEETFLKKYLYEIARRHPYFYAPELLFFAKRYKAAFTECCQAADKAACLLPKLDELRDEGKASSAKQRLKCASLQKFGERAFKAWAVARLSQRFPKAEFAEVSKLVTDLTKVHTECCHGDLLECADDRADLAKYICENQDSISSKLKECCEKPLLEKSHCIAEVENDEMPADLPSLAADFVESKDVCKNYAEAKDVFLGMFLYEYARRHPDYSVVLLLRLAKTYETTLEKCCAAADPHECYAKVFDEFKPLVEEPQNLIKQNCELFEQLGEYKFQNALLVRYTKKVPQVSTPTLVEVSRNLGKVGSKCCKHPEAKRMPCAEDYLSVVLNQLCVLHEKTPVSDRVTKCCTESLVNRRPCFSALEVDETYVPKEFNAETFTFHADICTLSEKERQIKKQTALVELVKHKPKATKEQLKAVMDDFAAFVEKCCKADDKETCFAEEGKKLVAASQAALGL

For the compound `CCCCCCCCCCCCCCCCC(NC(=O)CCC(=O)O[C@]1(CC)C(=O)OCc2c1cc1n(c2=O)Cc2c-1nc1ccc(O)cc1c2CC)C(=O)O` (stereo partly drawn) [FL-003], the fraction unbound (as a rule, free concentration divided by total concentration) at 20 h, 5 μM in data set [1] is less than 0.001. For the same compound, in data set [2] (setting [5]), the “Peak Area Ratio (Analyte/IS) Human Plasma 0 min Replicate 1” value amounted to 3.91 and the “Peak Area Ratio (Analyte/IS) Human Plasma 60 min Replicate 1” value turned out to be 3.37. In data set [2] (setting [6]), the “Peak Area Ratio (Analyte/IS) Human Plasma 0 min Replicate 2” value is given as 4.03 and the “Peak Area Ratio (Analyte/IS) Human Plasma 60 min Replicate 2” value was determined as 3.73. For the same compound, the “% Remaining after 1-hr Incubation at 37° C. in Human Plasma, Average” value (shortened to “% Remaining after 1-hr Incubation … Average”) in data set [2] (human plasma, 37° C., 1 hr, average of duplicates) is listed as 89%. For the same compound, the “% Remaining after 1-hr Incubation at 37° C. in Human Plasma, Replicate 1” value (shortened to “% Remaining after 1-hr Incubation … Replicate 1”) in data set [2] (human plasma, 37° C., 1 hr, replicate 1) was 85%. For the same compound, the “% Remaining after 1-hr Incubation at 37° C. in Human Plasma, Replicate 2” value (shortened to “% Remaining after 1-hr Incubation … Replicate 2”) in data set [2] (human plasma, 37° C., 1 hr, replicate 2) was 94%.

For the compound `CCCCCCCCCCCCCCCCC(NC(=O)C(CCCCN)NC(=O)CCC(=O)O[C@]1(CC)C(=O)OCc2c1cc1n(c2=O)Cc2cc3ccccc3nc2-1)C(=O)O` (stereo partly drawn) [FL-013], in data set [1], the fraction unbound at 20 h, 5 μM is less than 0.001.

`CCCCCCCCCCCCCCCCC(NC(=O)CCC(=O)O[C@]1(CC)C(=O)OCc2c1cc1n(c2=O)Cc2cc3ccccc3nc2-1)C(=O)O` (stereo partly drawn) [FL-001] displayed a fraction unbound at 20 h, 5 μM in data set [1] of less than 0.001. In data set [2] (setting [5]), the “Peak Area Ratio (Analyte/IS) Human Plasma 0 min Replicate 1” value is 1.47 and the “Peak Area Ratio (Analyte/IS) Human Plasma 60 min Replicate 1” value was determined as 1.96. In data set [2] (setting [6]), the “Peak Area Ratio (Analyte/IS) Human Plasma 0 min Replicate 2” value came out at 1.75 and the “Peak Area Ratio (Analyte/IS) Human Plasma 60 min Replicate 2” value turned out to be 2.13. In addition, in data set [2] (human, plasma, 1 h), the “% Remaining after 1-hr Incubation … Average” value stood at 127%; the “% Remaining after 1-hr Incubation … Replicate 1” value came to 122%; the “% Remaining after 1-hr Incubation … Replicate 2” value is listed as 132%.

As for `CC(=O)CC(c1ccccc1)c1c(O)c2ccccc2oc1=O` (stereo not drawn) [Warfarin], the “protein binding in human plasma (literature values)” value in data set [3] is 98-100%.

For `CCCCCCCCCCCCCCCCC(NC(=O)CCC(=O)O[C@]1(CC)C(=O)OCc2c1cc1n(c2=O)Cc2cc3c(CN(C)C)c(O)ccc3nc2-1)C(=O)O` (stereo partly drawn) [FL-004], the fraction unbound at 20 h, 5 μM in data set [1] is less than 0.002.

`CC[C@@]1(O)C(=O)OCc2c1cc1n(c2=O)Cc2cc3ccccc3nc2-1` [Camptothecin]: in data set [2] (same protocol, human plasma, 1 hr), the “percent remaining after 1-hr incubation in human plasma” value is 11%.

In data set [1], `CCCCCCCCCCCCCCCC(=O)N[C@@H](CCC(=O)NCC(=O)O[C@]1(CC)C(=O)OCc2c1cc1n(c2=O)Cc2c-1nc1ccc(O)cc1c2CC)C(=O)O` [FL-033] gave a fraction unbound at 20 h, 5 μM of less than 0.001.

For the compound `CCN(CC)CCOC(=O)c1ccc(N)cc1` [Procaine, reference compound], in data set [2] (setting [5]), the “Peak Area Ratio (Analyte/IS) Human Plasma 0 min Replicate 1” value was 0.60 and the “Peak Area Ratio (Analyte/IS) Human Plasma 60 min Replicate 1” value is recorded as 0.00. For the same compound, in data set [2] (setting [6]), the “Peak Area Ratio (Analyte/IS) Human Plasma 0 min Replicate 2” value stood at 1.21 and the “Peak Area Ratio (Analyte/IS) Human Plasma 60 min Replicate 2” value came to 0.11. In addition, in data set [2] (human, plasma, 1 h), the “% Remaining after 1-hr Incubation … Average” value is reported as 6%; the “% Remaining after 1-hr Incubation … Replicate 1” value worked out at 0%; the “% Remaining after 1-hr Incubation … Replicate 2” value is 12%.

For `CCCCCCCCCCCCC(NC(=O)CCC(=O)O[C@]1(CC)C(=O)OCc2c1cc1n(c2=O)Cc2cc3c(CN(C)C)c(O)ccc3nc2-1)C(=O)O` (stereo partly drawn) [FL-008], in data set [1], the fraction unbound at 20 h, 5 μM is less than 0.002.

Consider `CCCCCCCCCCCCCCCC(=O)N(CCC(=O)O[C@]1(CC)C(=O)OCc2c1cc1n(c2=O)Cc2cc3ccccc3nc2-1)CC(=O)O` [FL-015], for which, in data set [1], the fraction unbound at 20 h, 5 μM was less than 0.001.

With `CC[C@@]1(O)C(=O)OCc2c1cc1n(c2=O)Cc2cc3c(N)cccc3nc2-1` [9-Aminocamptothecin], the “equilibrium concentration of active (lactone) form in blood” value in data set [4] was “less than 0.5%”.

For the compound `CCCCCCCCCCCCCCCCC(NC(=O)CCCC(=O)O[C@]1(CC)C(=O)OCc2c1cc1n(c2=O)Cc2cc3c(CN(C)C)c(O)ccc3nc2-1)C(=O)O` (stereo partly drawn) [FL-010], in data set [1], the fraction unbound at 20 h, 5 μM is less than 0.002.

`CCCCCCCCC(NC(=O)CCC(=O)O[C@]1(CC)C(=O)OCc2c1cc1n(c2=O)Cc2cc3c(CN(C)C)c(O)ccc3nc2-1)C(=O)O` (stereo partly drawn) [FL-006]: in data set [1], the fraction unbound at 20 h, 5 μM was 0.015.
